Like-named read-outs stand apart in the source and are kept apart here.
Columns and labels:
[1] = system: MDA-MB231 cell lines; experiment: MTT cell viability assay (IC50); assay type: cell-based; details: Homo sapiens, MDA-MB-231, single dose of treatment, 10^−9 to 10^−4 M, 570 nm absorbance, FIG. 1, read-out: IC50 (half-maximal inhibitory concentration), MTT cell viability
Description: (§1) HCT 116 colon cancer and MDA-MB231 breast cancer cell lines are used in cell culture experiments.
(§2) Cells were treated with high-glucose DMEM medium (Biosera) supplemented with 10% FBS (Gibco) and 1× penicillin/streptomycin (Multicell). The assay was designed to contain 10,000 cells for each well of 24-well cell culture plates before being treated with inhibitors.
(§3) Compound of formula I was dissolved with DMSO as 20 mM stock. 24 hours later, the solution was diluted in DMEM with 10% FBS and final concentration of vehicle DMSO was 0.5% at maximum. Therefore, the vehicle group included 0.5% DMSO concentration in experiments. Intensive cultivation of cells causes a decrease in proliferation capacity.
The MTT cell viability assay was used to detect values of half-maximal inhibitory concentration (IC50). Different concentrations of compound of formula I ranging between 10^−9 to 10^−4 M were tested on MDA-MB231 cell lines with single dose of treatment. 570 nm absorbance values were recorded and IC50 values were calculated by dose response—inhibition curves and nonlinear regression analysis on Graphpad Prism 8 software.

[2] = system: HCT 116 colon cancer and MDA-MB231 breast cancer cell lines; experiment: MTT cell proliferation assay (time course); assay type: cell-based; details: for cytotoxicity at 100 µM: read-out: cell viability decrease
Description: as §1, §2, §3
For proliferation inhibition analysis, cells were seeded in 24 well plates at 1×10^4 cells/well cells overnight without drug treatment. During the cell proliferation experiments, we performed five days of treatment in each cell line and repeated the experiments three times to check each experiment. No significant difference in cell viability was observed after the third day. Therefore, cells with different drug concentrations were treated for two days. After 48 hours, MTT was applied to the cells and incubated at 37° C. for 4 hours, formazan was solubilized with DMSO (Sigma-Aldrich, St. Louis, USA) and absorbance was measured at 570 nm.
Molecule concentration was 100 μM, the lower concentrations were not shown. Vehicle represents the groups treated with only %0.5 DMSO and Untreated represents no molecule treated group. Molecule responses were evaluated by cell viability which is obtained by spectrophotometric analysis of cells upon MTT treatment at 12 h, 24 h, 48 h and 72 h. […] Statistical significance in graphs was determined by comparing each treatment group with DMSO control using ANOVA testing and significance is considered as p<0.001 (FIG. 2).

[3] = system: HCT-116 cells; experiment: Microscopic evaluation of cells (proliferation, apoptotic morphology); assay type: cell-based; details: FIG. 3
Description: Cells were photographed and observed under microscope for three days.
As a result, cell viability decreased by 40% at the end of the first day and reached 60% at the end of the third day. Any cell proliferation change and apoptotic cell morphology were not observed in the untreated and vehicle groups. Moreover, differences in cell morphology were also observed. […] Upon treatment with the compound of formula I according to present invention with 100 μM concentration, cells having the morphology of apoptotic cells were observed starting from the 3rd hour.

[4] = biological target: MDM2 protein (Homo sapiens, UniProt Q00987); details: versus a natural p53 peptide; cited from earlier work
Sequence of MDM2 protein (Q00987 whole entry, species assumed): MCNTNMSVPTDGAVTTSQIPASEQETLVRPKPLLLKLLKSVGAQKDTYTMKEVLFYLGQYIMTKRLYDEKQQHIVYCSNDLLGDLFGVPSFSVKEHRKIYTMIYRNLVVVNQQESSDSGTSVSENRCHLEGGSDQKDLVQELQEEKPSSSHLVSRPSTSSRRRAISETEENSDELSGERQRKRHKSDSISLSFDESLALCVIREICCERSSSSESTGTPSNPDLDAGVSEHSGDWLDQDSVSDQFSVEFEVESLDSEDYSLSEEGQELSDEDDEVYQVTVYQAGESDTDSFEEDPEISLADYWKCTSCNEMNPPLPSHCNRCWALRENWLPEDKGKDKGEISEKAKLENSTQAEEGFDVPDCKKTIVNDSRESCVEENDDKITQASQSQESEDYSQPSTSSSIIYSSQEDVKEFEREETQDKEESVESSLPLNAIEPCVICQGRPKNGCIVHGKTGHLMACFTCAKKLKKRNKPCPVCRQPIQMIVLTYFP

| IC50 [1] | Molecule | cell viability compared to vehicle and untreated groups ([2]; 100 μM, MTT at 12 h, 24 h, 48 h and 72 h, ANOVA, p<0.001, FIG. 2) | cytotoxicity at 100 µM ([2]; end of the first day) | cytotoxicity at 100 µM ([2]; end of the third day) | time from which cells having the morphology of apoptotic cells were observed ([3]; 100 μM concentration) | apoptotic activity under microscope ([3]; HCT-116) | proliferation under microscope ([3]; HCT-116, observed for three days, versus vehicle and untreated) | binding affinity to MDM2 relative to natural p53 peptide [4] |
| --- | --- | --- | --- | --- | --- | --- | --- | --- |
| 77 µM | O=C(O)CC(NC(=O)Cc1c[nH]c2ccccc12)c1ccc(F)cc1 (centres unmarked) [compound of formula I] | statistically significant difference | 40% | 60% | 3 hour | clear apoptotic activity from the twelfth hour | reduced proliferation |  |
|  | MI-319 |  |  |  |  |  |  | 500 fold |

— patent publication US12595232B2, “DRG-MDM2-1 for use as a novel Mouse Double Minute 2 (MDM2) inhibitor” (BAHCESEHIR UNIVERSITESI, priority 2020, dated 2026)
